Measurements taken from patent publication US4257941A, “Polycyclic nitrogen-containing compounds” (BASF Aktiengesellschaft, priority 1976, dated 1981).
Like-named read-outs stand apart in the source and are kept apart here.

Experiments:
Alopecurus myosuroides = experiment: Herbicidal action (Example 25); type: in vivo; details: Alopecurus myosuroides, read-out: percentage damage; for pest or weed control at 2000 g/ha: 2.0 kg/ha; for pest or weed control at 4000 g/ha: 4.0 kg/ha; for pest or weed control at 8000 g/ha: 8.0 kg/ha; for pest or weed control at 1000 g/ha: 1.0 kg/ha
Procedure: (§1) Paraffined paper cups having a volume of 170 cm^3 were filled with a sandy loam, and the seeds of the test plants sown therein, separated by species. (The species are also listed below.)
(§2) In the first group, treatment was effected immediately after sowing and before germination of the seeds (preemergence treatment=soil treatment). Shallow sown seeds not completely covered with soil came into contact with the active ingredients. In the second group, the plants were treated postemergence (=leaf treatment) at a growth height of from 2 to 8 cm, depending on the rate of growth and shape of the species concerned. The compounds were suspended or emulsified in water and applied with the aid of fine nozzles. The soil and plants were thoroughly sprinkler irrigated for the duration of the experiment. The cups were placed in the greenhouse and kept in the temperature range 12°-25° C. or 18°-35° C., depending on the temperature requirements of the various species. After 2 to 6 weeks the action was assessed visually on a 0 to 100 scale, 0 denoting no damage and 100 denoting plants not germinated or completely destroyed.

Datura stramonium = experiment: Herbicidal action (Example 25); type: in vivo; details: postemergence
Procedure: as §1, §2

Sinapis alba = experiment: Herbicidal action (Example 25); type: in vivo; details: read-out: percentage damage; for pest or weed control at 1000 g/ha: 1.0 kg/ha; for pest or weed control at 2000 g/ha: 2.0 kg/ha
Procedure: as §1, §2

Echinochloa crus galli = experiment: Herbicidal action (Example 25); type: in vivo
Procedure: as §1, §2

Galium aparine = experiment: Herbicidal action (Example 25); type: in vivo; details: post-emergence, postemergence, 4.0 kg/ha, read-out: percentage damage
Procedure: as §1, §2

tomatoes = experiment: Action on tomatoes (Example 22); type: in vivo; details: leaf; for Plant height: 14 days; for Plant height relative: control 100
Procedure: Tomatoes were grown in the greenhouse in glass dishes 11.5 cm in diameter containing a peat substrate which was provided with an adequate supply of nutrients. The active ingredients were sprayed onto the leaves in conventional manner at a plant height of 9 to 12 cm.

Festuca rubra = experiment: Growth height of individual grasses (Example 15); type: in vivo; details: for Growth height: 3 weeks after treatment; for growth height relative: control 100
Procedure: (§3) Under the same conditions as in Example 13 the two grasses Festuca rubra and Poa praetensis (both components of the lawn mixture used in Example 13) were grown in a neutral sandy loam. The growth height was measured 3 weeks after treatment with the active ingredients.

Poa praetensis = experiment: Growth height of individual grasses (Example 15); type: in vivo; set-up: key to plant color: ^+: plants a darker green; details: for Growth height: 3 weeks after treatment; for growth height relative: control 100
Procedure: as §3

Digitaria sanguinalis = experiment: Herbicidal action (Example 25); type: in vivo; details: postemergence
Procedure: as §1, §2

Eleusine indica = experiment: Herbicidal action (Example 25); type: in vivo; details: postemergence
Procedure: as §1, §2

sugar beet = experiment: Yield and sugar content of sugar beet (Example 20); type: in vivo, sugar beet (KAWpoly variety); details: for Sugar content of lower stems rel. / Sugar content rel. / Yield rel.: control 100
Procedure: Sugar beets of the KAWpoly variety were grown in a neutral sandy loam in large pots. Fertilization with 1.5 g N as ammonium nitrate and 1 g P2 O5 as secondary potassium phosphate took place at the time of sowing. At a plant height of 16 to 18 cm the leaves were treated twice, once with 0.5 kg/ha and once with 1 kg/ha; in each case, 4 pots formed a variation of the experiment.

Q: For `C=CCN(CC=C)C(=O)CCl` [drawing 425], which pest or weed control at 2000 g/ha (Alopecurus myosuroides; post-emergence, postemergence) is on record?
A: 28%

Q: What about the pest or weed control at 4000 g/ha (Alopecurus myosuroides; post-emergence, postemergence) of the same molecule?
A: 38%

Q: And the pest or weed control at 8000 g/ha (Alopecurus myosuroides; post-emergence, postemergence)?
A: 35%

Q: What about the pest or weed control at 2000 g/ha (Alopecurus myosuroides; pre-emergence, preemergence) of the same molecule?
A: 68%

Q: What about the pest or weed control at 4000 g/ha (Alopecurus myosuroides; pre-emergence, preemergence) of the same molecule?
A: 85%

Q: What about the pest or weed control at 8000 g/ha (Alopecurus myosuroides; pre-emergence, preemergence) of the same molecule?
A: 98%

Q: What about the percentage damage (Datura stramonium; 2.0 kg/ha) of the same molecule?
A: 10 percentage damage

Q: What about the percentage damage (Datura stramonium; 4.0 kg/ha) of the same molecule?
A: 20 percentage damage

Q: And the percentage damage (Datura stramonium; 8.0 kg/ha)?
A: 60 percentage damage

Q: Which pest or weed control at 1000 g/ha (Alopecurus myosuroides; post-emergence, postemergence) does the source give for `CCc1cccc(CC)c1N(COC)C(=O)CCl` here?
A: 40%

Q: And the pest or weed control at 2000 g/ha (Alopecurus myosuroides; post-emergence, postemergence)?
A: 50%

Q: And the pest or weed control at 1000 g/ha (Alopecurus myosuroides; pre-emergence, preemergence)?
A: 20%

Q: What about the pest or weed control at 2000 g/ha (Alopecurus myosuroides; pre-emergence, preemergence) of the same molecule?
A: 78%

Q: And the pest or weed control at 1000 g/ha (Sinapis alba; post-emergence, postemergence)?
A: 0%

Q: And the pest or weed control at 2000 g/ha (Sinapis alba; post-emergence, postemergence)?
A: 0%

Q: And the pest or weed control at 1000 g/ha (Sinapis alba; pre-emergence, preemergence)?
A: 0%

Q: And the pest or weed control at 2000 g/ha (Sinapis alba; pre-emergence, preemergence)?
A: 0%

Q: And the percentage damage (Echinochloa crus galli; postemergence, 1.0 kg/ha)?
A: 98 percentage damage

Q: What about the percentage damage (Echinochloa crus galli; postemergence, 2.0 kg/ha) of the same molecule?
A: 98 percentage damage

Q: And the percentage damage (Echinochloa crus galli; preemergence, 1.0 kg/ha)?
A: 100 percentage damage

Q: What about the percentage damage (Echinochloa crus galli; preemergence, 2.0 kg/ha) of the same molecule?
A: 100 percentage damage

Q: What about the pest or weed control at 4000 g/ha (Galium aparine) of the same molecule?
A: 0%

Q: What does the source list for `Brc1ccc(N2N=NC3C4CC(C5N=NC45)C32)cc1` (stereo not drawn) [drawing 403]?
A: Plant height (tomatoes; 1.5 kg/ha): 25.0 cm; Plant height relative (tomatoes; 1.5 kg/ha): 91.9; Plant height (tomatoes; 3.0 kg/ha): 22.7 cm; Plant height relative (tomatoes; 3.0 kg/ha): 83.5; Plant height (tomatoes; 6.0 kg/ha): 15.3 cm; Plant height relative (tomatoes; 6.0 kg/ha): 56.2

Q: With `Brc1ccc(N2N=NC3C4CC(C5N=NC45)C32)cc1` (stereo not drawn) [drawing 386] as the molecule, how does the Growth height (Festuca rubra; 0.5 kg/ha) read?
A: 29.5 cm

Q: What about the growth height relative (Festuca rubra; 0.5 kg/ha) of the same molecule?
A: 107.3

Q: What about the Growth height (Festuca rubra; 1.0 kg/ha) of the same molecule?
A: 27.5 cm

Q: And the growth height relative (Festuca rubra; 1.0 kg/ha)?
A: 100.0

Q: And the Growth height (Festuca rubra; 2.0 kg/ha)?
A: 25.5 cm

Q: What about the growth height relative (Festuca rubra; 2.0 kg/ha) of the same molecule?
A: 92.7

Q: What about the Growth height (Poa praetensis; 0.5 kg/ha) of the same molecule?
A: 19.0 cm

Q: And the growth height relative (Poa praetensis; 0.5 kg/ha)?
A: 84.4

Q: And the plant color (Poa praetensis; 1.0 kg/ha)?
A: ^+

Q: What about the Growth height (Poa praetensis; 1.0 kg/ha) of the same molecule?
A: 17.5 cm

Q: And the growth height relative (Poa praetensis; 1.0 kg/ha)?
A: 77.8

Q: And the plant color (Poa praetensis; 2.0 kg/ha)?
A: ^+

Q: And the Growth height (Poa praetensis; 2.0 kg/ha)?
A: 14.0 cm

Q: And the growth height relative (Poa praetensis; 2.0 kg/ha)?
A: 62.2

Q: With `c1csc(N2N=NC3C4CC(C5N=NC45)C32)n1` (stereo not drawn) [drawing 430] as the molecule, how does the pest or weed control at 2000 g/ha (Alopecurus myosuroides; post-emergence, postemergence) read?
A: 32%

Q: What about the pest or weed control at 4000 g/ha (Alopecurus myosuroides; post-emergence, postemergence) of the same molecule?
A: 40%

Q: What about the pest or weed control at 8000 g/ha (Alopecurus myosuroides; post-emergence, postemergence) of the same molecule?
A: 50%

Q: What about the pest or weed control at 2000 g/ha (Alopecurus myosuroides; pre-emergence, preemergence) of the same molecule?
A: 70%

Q: And the pest or weed control at 4000 g/ha (Alopecurus myosuroides; pre-emergence, preemergence)?
A: 88%

Q: What about the pest or weed control at 8000 g/ha (Alopecurus myosuroides; pre-emergence, preemergence) of the same molecule?
A: 100%

Q: And the percentage damage (Digitaria sanguinalis; 2.0 kg/ha)?
A: 60 percentage damage

Q: And the percentage damage (Digitaria sanguinalis; 4.0 kg/ha)?
A: 60 percentage damage

Q: What about the percentage damage (Digitaria sanguinalis; 8.0 kg/ha) of the same molecule?
A: 80 percentage damage

Q: What about the percentage damage (Eleusine indica; 2.0 kg/ha) of the same molecule?
A: 60 percentage damage

Q: What about the percentage damage (Eleusine indica; 4.0 kg/ha) of the same molecule?
A: 60 percentage damage

Q: And the percentage damage (Eleusine indica; 8.0 kg/ha)?
A: 70 percentage damage

Q: And the percentage damage (Datura stramonium; 2.0 kg/ha)?
A: 50 percentage damage

Q: And the percentage damage (Datura stramonium; 4.0 kg/ha)?
A: 60 percentage damage

Q: What about the percentage damage (Datura stramonium; 8.0 kg/ha) of the same molecule?
A: 65 percentage damage

Q: Which results are given for `Brc1ccc(N2N=NC3C4CC(C5N=NC45)C32)cc1` (stereo not drawn) [drawing 400]?
A: Sugar content (sugar beet; 0.5 kg/ha): 51.0 % in dry substance; Sugar content of lower stems (sugar beet; 0.5 kg/ha): 22.9 % in dry substance; Yield (sugar beet; 0.5 kg/ha): 13.04 g dry substance/vessel; Sugar content of lower stems rel. (sugar beet; 0.5 kg/ha): 100.9; Sugar content rel. (sugar beet; 0.5 kg/ha): 101.4; Yield rel. (sugar beet; 0.5 kg/ha): 107.4; Sugar content (sugar beet; 1.0 kg/ha): 52.2 % in dry substance; Sugar content of lower stems (sugar beet; 1.0 kg/ha): 25.8 % in dry substance; Yield (sugar beet; 1.0 kg/ha): 14.39 g dry substance/vessel; Sugar content of lower stems rel. (sugar beet; 1.0 kg/ha): 113.6; Sugar content rel. (sugar beet; 1.0 kg/ha): 103.8; Yield rel. (sugar beet; 1.0 kg/ha): 118.5
